Data reported in patent publication US9388122B2, “Radioactive tyrosine derivative, method for producing same, labeling agent for positron imaging and medical agent for assessing grade of malignancy of tumor respectively composed of radioactive tyrosine derivative, and method for detecting tumor” (priority 2004, dated 2016).
“Also recorded” adds a separate entry of the source.

test system: tumor tissues; experiment: not given; conditions: in vivo; cited from earlier work

Row | Compound | accumulation in tumor tissues
1 | N[C@H](Cc1ccc(OCC[18F])cc1)C(=O)O [D-[^18F]FET, O—[^18F]fluoroethyl-D-tyrosine] | does not accumulate in tumor tissues

test system: HeLa-K (cell strain: 15S3D) and HeLa-B (JCRB9004); experiment: Relationship between tumor proliferation rate and degree of accumulation of labeled compound for positron imaging; assay type: in vivo, nude mice (BALB/cA Jcl-nu); conditions: HeLa-K doubling time 4.4 days, HeLa-B 11.0 days; tail vein, 1 hour after administration
Excerpt: HeLa-K (cell strain: 15S3D) and HeLa-B (Health Science Research Resources Bank: JCRB9004) were subcutaneously transplanted at 5×10^6 cells/mouse and 2×10^7 cells/mouse, respectively, to the thighs of female BALB/cA Jcl-nu nude mice (HeLa-K: 7-week-old mice, HeLa-B: 5-week-old mice). The HeLa-K- and HeLa-B-transplanted mice, when becoming 9 week old after 2 weeks and 4 weeks of the transplantation, respectively, were used in the experiment. To examine the relationship between the accumulation of each labeled compound in the cancer-bearing mice and the proliferation rate of the tumor tissue, tumor size was daily measured. Doubling time (DT) was calculated according to the calculation formula: DT=t×log2 (V1/V0) proposed by Schwartz, wherein t denotes the number of days required for the tumor volume to reach V1 (mm^3) from V0 (mm^3), and the volume (mm^3) was calculated according to ½×length (mm)×width^2 (mm^2) from the major axis of the tumor. FIG. 7 is a graph showing the relationship between the number of days elapsed after HeLa transplantation and tumor volumes. […] The doubling times of HeLa-K and HeLa-B calculated from FIG. 7 were 4.4 days and 11.0 days, respectively.
The HeLa-K- and HeLa-B-transplanted nude mice were administered through the tail veins with [^18F]FDG, [^11C]choline, [^18F]FLT, L- and D-[^11C]Met, and L- and D-[^11C]MT at 1 MBq ([^18F]FDG and [^18F]FLT) or 10 MBq ([^11C]choline, L- and D-[^11C]Met, and L- and D-[^11C]MT). […] The radioactivities of the blood and tumor were measured with an automatic gamma counter, their weights were measured, and SUV was determined.
HeLa-K- and HeLa-B-transplanted nude mice were administered through the tail veins with L- and D-[^11C]ET, L- and D-[^18F]FMT, L-and D-[^18F]FET, and L- and D-[^18F]FPT at 10 MBq (L- and D-[^11C]ET) or 1 MBq (the others). […] The radioactivities of the blood and tumor were measured with an automatic gamma counter, their weights were measured, and SUV was determined.

Row | Compound | accumulation in tumor, SUV (organ)/SUV (blood), HeLa-K versus HeLa-B
2 | [11CH3]Oc1ccc(C[C@@H](N)C(=O)O)cc1 [D-[^11C]MT, O—[^11C]methyl-D-tyrosine] | accumulated more in HeLa-K exhibiting faster proliferation

same assay, conditions: HeLa-K versus HeLa-B tumors; SUV (organ)/SUV (blood), 1 hour after administration

Row | Compound | difference in the degree of accumulation depending on the difference in proliferation rate
3 | [11CH3]Oc1ccc(C[C@@H](N)C(=O)O)cc1 [D-[^11C]MT, O—[^11C]methyl-D-tyrosine] | remarkably large
4 | N[C@H](Cc1ccc(OC[18F])cc1)C(=O)O [D-[^18F]FMT, O—[^18F]fluoromethyl-D-tyrosine] | remarkably large as compared with L-[^18F]FMT

same assay, conditions: mouse, in vivo

Row | Compound | difference in the degree of accumulation depending on the difference in proliferation rate
5 | [11CH3]SCC[C@H](N)C(=O)O [L-[^11C]Met, L-[^11C]methionine, reference compound] | not detected
6 | [^18F]-2-fluoro-2-deoxy-D-glucose [[^18F]FDG, reference compound] | not detected

test system: HeLa; experiment: Planar measurement in cancer-bearing mice; conditions: 2.5 MBq tail vein, 60 minutes measurement
Procedure: Measurement was performed (1 minute×60 frames) for 60 minutes immediately after the compound administration by use of a planar imaging system (PPIS-4800 manufactured by Hamamatsu Photonics K. K.) and indicated by images each comprising 10 frames integrated.

Row | Compound | tumor-specific accumulation, D-form compared with L-form (planar imaging)
7 | [11CH3]Oc1ccc(C[C@@H](N)C(=O)O)cc1 [D-[^11C]MT, O—[^11C]methyl-D-tyrosine] | accumulate in a manner specific to the tumor as compared with the L-form
8 | N[C@H](Cc1ccc(OC[18F])cc1)C(=O)O [D-[^18F]FMT, O—[^18F]fluoromethyl-D-tyrosine] | accumulate in a manner specific to the tumor as compared with the L-form

same assay, conditions: 2.5 MBq tail vein, 60 minutes measurement, PPIS-4800

Row | Compound | accumulation in the tumor site (planar imaging)
9 | [11CH3]Oc1ccc(C[C@@H](N)C(=O)O)cc1 [D-[^11C]MT, O—[^11C]methyl-D-tyrosine] | observed in the tumor site
10 | [11CH3]SCC[C@@H](N)C(=O)O [D-[^11C]Met, reference compound] | observed in the tumor site
11 | N[C@H](Cc1ccc(OC[18F])cc1)C(=O)O [D-[^18F]FMT, O—[^18F]fluoromethyl-D-tyrosine] | observed in the tumor site
12 | [11CH3]Oc1ccc(C[C@H](N)C(=O)O)cc1 [L-[^11C]MT, O—[^11C]methyl-L-tyrosine, reference compound] | observed in the tumor site
13 | [11CH3]SCC[C@H](N)C(=O)O [L-[^11C]Met, L-[^11C]methionine, reference compound] | observed in the tumor site
14 | N[C@@H](Cc1ccc(OC[18F])cc1)C(=O)O [L-[^18F]FMT, O—[^18F]fluoromethyl-L-tyrosine] | observed in the tumor site

same assay, conditions: 2.5 MBq tail vein, 60 minutes measurement, compared with tumor site

Row | Compound | accumulation in the normal tissues (planar imaging)
15 | [11CH3]SCC[C@@H](N)C(=O)O [D-[^11C]Met, reference compound] | significantly stronger in the normal tissues
16 | [11CH3]SCC[C@H](N)C(=O)O [L-[^11C]Met, L-[^11C]methionine, reference compound] | significantly stronger in the normal tissues

test system: cancer cells; experiment: not given; conditions: cited from earlier work

Row | Compound | uptake to cancer cells
17 | N[C@H](Cc1ccc(OCC[18F])cc1)C(=O)O [D-[^18F]FET, O—[^18F]fluoroethyl-D-tyrosine] | low uptake to cancer cells

test system: Human cervical cancer HeLa cells (cell strain: 15S3D); experiment: Measurement of organ distribution in cancer-bearing mice; conditions: D-form compared with L-form; 1 hour after administration
Procedure: Human cervical cancer HeLa cells (cell strain: 15S3D) were subcutaneously transplanted at 5×10^6 cells/mouse to the thighs of 7-week-old nude mice (BALB/cA Jcl-nu, Clea Japan, Inc). […] After 1 hour of the administration, the mice were decapitated to collect each organ (blood, heart, lung, liver, kidney, spleen, muscle, bone, small intestine, gastrointestinal tract, pancreas, brain, and tumor). The radioactivity of each organ was measured with an automatic gamma counter, and the weight of each organ was measured. SUV (standardized uptake value) that served as an index of the accumulating amounts of the administered compounds was determined. Furthermore, to correct the accumulating amounts, SUV (organ)/SUV (blood) was determined by dividing the SUV of each organ by the SUV of blood.

Row | Compound | ratio of accumulation to the pancreas to accumulation to the tumor indicated by SUV (organ)/SUV (blood)
18 | C[11CH2]Oc1ccc(C[C@@H](N)C(=O)O)cc1 [D-[^11C]ET, O—[^11C]ethyl-D-tyrosine] | lower in the D-form than in the L-form
19 | [11CH3]Oc1ccc(C[C@@H](N)C(=O)O)cc1 [D-[^11C]MT, O—[^11C]methyl-D-tyrosine] | lower in the D-form than in the L-form
20 | N[C@H](Cc1ccc(OCC[18F])cc1)C(=O)O [D-[^18F]FET, O—[^18F]fluoroethyl-D-tyrosine] | lower in the D-form than in the L-form
21 | N[C@H](Cc1ccc(OCCC[18F])cc1)C(=O)O [D-[^18F]FPT, O—[^18F]fluoropropyl-D-tyrosine] | lower in the D-form than in the L-form

same assay, conditions: HeLa-transplanted nude mice, tail vein, 10 MBq (11C) or 1 MBq (18F), 1 hour after administration, gamma counter

Row | Compound | accumulation in the tumor, SUV (organ)/SUV (blood)
22 | C[11CH2]Oc1ccc(C[C@@H](N)C(=O)O)cc1 [D-[^11C]ET, O—[^11C]ethyl-D-tyrosine] | observed in the tumor
23 | [11CH3]Oc1ccc(C[C@@H](N)C(=O)O)cc1 [D-[^11C]MT, O—[^11C]methyl-D-tyrosine] | observed in the tumor
24 | [11CH3]SCC[C@@H](N)C(=O)O [D-[^11C]Met, reference compound] | observed in the tumor
25 | N[C@H](Cc1ccc(OCC[18F])cc1)C(=O)O [D-[^18F]FET, O—[^18F]fluoroethyl-D-tyrosine] | observed in the tumor
26 | N[C@H](Cc1ccc(OCCC[18F])cc1)C(=O)O [D-[^18F]FPT, O—[^18F]fluoropropyl-D-tyrosine] | observed in the tumor
27 | C[11CH2]Oc1ccc(C[C@H](N)C(=O)O)cc1 [L-[^11C]ET, O—[^11C]Ethyl-L-tyrosine, reference compound] | observed in the tumor
28 | [11CH3]Oc1ccc(C[C@H](N)C(=O)O)cc1 [L-[^11C]MT, O—[^11C]methyl-L-tyrosine, reference compound] | observed in the tumor
29 | [11CH3]SCC[C@H](N)C(=O)O [L-[^11C]Met, L-[^11C]methionine, reference compound] | observed in the tumor
30 | N[C@@H](Cc1ccc(OCC[18F])cc1)C(=O)O [L-[^18F]FET, O—[^18F]Fluoroethyl-L-tyrosine, reference compound] | observed in the tumor
31 | N[C@@H](Cc1ccc(OCCC[18F])cc1)C(=O)O [L-[^18F]FPT, O—[^18F]Fluoropropyl-L-tyrosine, reference compound] | observed in the tumor

same assay, conditions: HeLa-transplanted nude mice, tail vein, 1 hour after administration

Row | Compound | accumulation in the normal tissues, SUV (organ)/SUV (blood) | SUV (organ: tumor)/SUV (blood), D-form compared with L-form
32 | C[11CH2]Oc1ccc(C[C@@H](N)C(=O)O)cc1 [D-[^11C]ET, O—[^11C]ethyl-D-tyrosine] | low in the normal tissues except for the pancreas | –
33 | [11CH3]Oc1ccc(C[C@@H](N)C(=O)O)cc1 [D-[^11C]MT, O—[^11C]methyl-D-tyrosine] | low in the normal tissues except for the pancreas | higher value of SUV (organ: tumor)/SUV (blood) than the L-form
34 | [11CH3]SCC[C@@H](N)C(=O)O [D-[^11C]Met, reference compound] | also high in the normal tissues | –
35 | N[C@H](Cc1ccc(OCC[18F])cc1)C(=O)O [D-[^18F]FET, O—[^18F]fluoroethyl-D-tyrosine] | low in the normal tissues except for the pancreas | higher value of SUV (organ: tumor)/SUV (blood) than the L-form
36 | N[C@H](Cc1ccc(OC[18F])cc1)C(=O)O [D-[^18F]FMT, O—[^18F]fluoromethyl-D-tyrosine] | – | higher value of SUV (organ: tumor)/SUV (blood) than the L-form
37 | N[C@H](Cc1ccc(OCCC[18F])cc1)C(=O)O [D-[^18F]FPT, O—[^18F]fluoropropyl-D-tyrosine] | low in the normal tissues except for the pancreas and bone | –
38 | C[11CH2]Oc1ccc(C[C@H](N)C(=O)O)cc1 [L-[^11C]ET, O—[^11C]Ethyl-L-tyrosine, reference compound] | low in the normal tissues except for the pancreas | –
39 | [11CH3]Oc1ccc(C[C@H](N)C(=O)O)cc1 [L-[^11C]MT, O—[^11C]methyl-L-tyrosine, reference compound] | low in the normal tissues except for the pancreas | –
40 | [11CH3]SCC[C@H](N)C(=O)O [L-[^11C]Met, L-[^11C]methionine, reference compound] | also high in the normal tissues | –
41 | N[C@@H](Cc1ccc(OCC[18F])cc1)C(=O)O [L-[^18F]FET, O—[^18F]Fluoroethyl-L-tyrosine, reference compound] | low in the normal tissues except for the pancreas | –
42 | N[C@@H](Cc1ccc(OCCC[18F])cc1)C(=O)O [L-[^18F]FPT, O—[^18F]Fluoropropyl-L-tyrosine, reference compound] | low in the normal tissues except for the pancreas and bone | –

same assay, conditions: from SUV (organ)/SUV (blood) of the organs, 1 hour after administration

Row | Compound | specificity of accumulation to tumor
43 | C[11CH2]Oc1ccc(C[C@@H](N)C(=O)O)cc1 [D-[^11C]ET, O—[^11C]ethyl-D-tyrosine] | specific to the tumor
44 | [11CH3]Oc1ccc(C[C@@H](N)C(=O)O)cc1 [D-[^11C]MT, O—[^11C]methyl-D-tyrosine] | specific to the tumor
45 | [11CH3]SCC[C@@H](N)C(=O)O [D-[^11C]Met, reference compound] | low specificity to tumor
46 | N[C@H](Cc1ccc(OCC[18F])cc1)C(=O)O [D-[^18F]FET, O—[^18F]fluoroethyl-D-tyrosine] | specific to the tumor; also recorded: particularly high specificity to the tumor
47 | N[C@H](Cc1ccc(OC[18F])cc1)C(=O)O [D-[^18F]FMT, O—[^18F]fluoromethyl-D-tyrosine] | particularly high specificity to the tumor
48 | N[C@H](Cc1ccc(OCCC[18F])cc1)C(=O)O [D-[^18F]FPT, O—[^18F]fluoropropyl-D-tyrosine] | specific to the tumor
49 | C[11CH2]Oc1ccc(C[C@H](N)C(=O)O)cc1 [L-[^11C]ET, O—[^11C]Ethyl-L-tyrosine, reference compound] | specific to the tumor
50 | [11CH3]Oc1ccc(C[C@H](N)C(=O)O)cc1 [L-[^11C]MT, O—[^11C]methyl-L-tyrosine, reference compound] | specific to the tumor
51 | [11CH3]SCC[C@H](N)C(=O)O [L-[^11C]Met, L-[^11C]methionine, reference compound] | low specificity to tumor
52 | N[C@@H](Cc1ccc(OCC[18F])cc1)C(=O)O [L-[^18F]FET, O—[^18F]Fluoroethyl-L-tyrosine, reference compound] | specific to the tumor
53 | N[C@@H](Cc1ccc(OCCC[18F])cc1)C(=O)O [L-[^18F]FPT, O—[^18F]Fluoropropyl-L-tyrosine, reference compound] | specific to the tumor
